Reference: patent publication US7355042B2, “Treatment of CNS disorders using CNS target modulators” (Hypnion, Inc., priority 2001, dated 2008)
Read-outs that look alike come from different tables or passages of the source.

Tests used:
male Wistar rats = experiment: Sleep-wakefulness, locomotor activity and body temperature monitoring (SCORE-2000); format: in vivo, rat; conditions: for total sleep time post-treatment: 10 mg/kg PO at CT-18, versus methylcellulose vehicle; for body temperature adverse effects / disproportional locomotor inhibition: rats
[1] = molecular target: T1, H1 receptor from bovine cellular membranes (Bos taurus, UniProt P30546); experiment: H1 binding assay, [3H]pyrilamine displacement; conditions: for IC50: Table 6, Series 11, unit inferred
T1 construct: the H1 receptor was from bovine cellular membranes; from tissue

[2] = molecular target: T2, human recombinant M1 muscarinic receptor expressed in CHO cells (Homo sapiens, UniProt P11229); experiment: M1 binding assay (human recombinant), [3H]-scopolamine N-methyl chloride
T2 construct: expressed in transfected cells; host or cells: CHO cells
T2 sequence (P11229 1-460): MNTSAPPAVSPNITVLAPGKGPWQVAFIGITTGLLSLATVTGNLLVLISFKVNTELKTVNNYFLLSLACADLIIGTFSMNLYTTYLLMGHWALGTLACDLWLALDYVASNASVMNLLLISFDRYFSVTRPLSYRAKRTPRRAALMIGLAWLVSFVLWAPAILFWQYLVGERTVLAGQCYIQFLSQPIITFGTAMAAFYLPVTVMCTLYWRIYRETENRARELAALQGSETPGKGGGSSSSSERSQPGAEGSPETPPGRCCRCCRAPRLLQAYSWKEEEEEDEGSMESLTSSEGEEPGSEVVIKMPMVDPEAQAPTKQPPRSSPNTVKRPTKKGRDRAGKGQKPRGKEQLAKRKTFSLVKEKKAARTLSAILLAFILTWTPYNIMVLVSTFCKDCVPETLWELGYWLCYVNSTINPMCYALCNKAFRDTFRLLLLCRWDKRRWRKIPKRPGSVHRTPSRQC

[3] = molecular target: T3, human recombinant M3 muscarinic receptor expressed in CHO cells (Homo sapiens, UniProt P20309); experiment: M3 binding assay (human recombinant)
T3 construct: expressed in transfected cells; host or cells: CHO cells

[4] = molecular target: T4, human recombinant M2 muscarinic receptor expressed in CHO cells (Homo sapiens, UniProt P08172); experiment: M2 binding assay (human recombinant); conditions: Examples 15-17; unit inferred; read-out: binding affinity for cholinergic (muscarinic) receptor M2
T4 construct: expressed in transfected cells; host or cells: CHO cells
T4 sequence (P08172 1-466): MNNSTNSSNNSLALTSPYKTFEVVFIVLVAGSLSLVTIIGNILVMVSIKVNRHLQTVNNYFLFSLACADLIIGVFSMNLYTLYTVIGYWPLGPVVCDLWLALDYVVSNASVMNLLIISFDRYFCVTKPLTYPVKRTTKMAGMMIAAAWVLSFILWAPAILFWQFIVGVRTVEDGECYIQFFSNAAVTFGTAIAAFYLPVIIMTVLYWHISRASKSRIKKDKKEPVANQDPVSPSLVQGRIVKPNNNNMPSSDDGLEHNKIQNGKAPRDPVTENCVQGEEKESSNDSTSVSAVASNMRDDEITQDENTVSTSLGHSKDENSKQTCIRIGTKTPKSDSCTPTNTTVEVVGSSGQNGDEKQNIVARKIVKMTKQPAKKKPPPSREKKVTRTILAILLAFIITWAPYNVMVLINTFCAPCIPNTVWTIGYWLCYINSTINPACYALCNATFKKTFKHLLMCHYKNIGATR

[5] = 30 mg/kg and 10 mg/kg, intraperitoneal bolus at CT-18
[6] = intraperitoneal at CT-18, 11f 10 or 30 mg/kg, 6f and 15f 30 mg/kg
[7] = 10 mg/kg PO at CT-18, male Wistar rats
[8] = Examples 15-17, unit inferred, read-out: binding affinity for cholinergic (muscarinic) receptor M1
[9] = Examples 15-17, read-out: Ki, H1 binding assay
[10] = Examples 15-17, unit inferred, read-out: binding affinity for cholinergic (muscarinic) receptor M3

T1 sequence (P30546 whole entry): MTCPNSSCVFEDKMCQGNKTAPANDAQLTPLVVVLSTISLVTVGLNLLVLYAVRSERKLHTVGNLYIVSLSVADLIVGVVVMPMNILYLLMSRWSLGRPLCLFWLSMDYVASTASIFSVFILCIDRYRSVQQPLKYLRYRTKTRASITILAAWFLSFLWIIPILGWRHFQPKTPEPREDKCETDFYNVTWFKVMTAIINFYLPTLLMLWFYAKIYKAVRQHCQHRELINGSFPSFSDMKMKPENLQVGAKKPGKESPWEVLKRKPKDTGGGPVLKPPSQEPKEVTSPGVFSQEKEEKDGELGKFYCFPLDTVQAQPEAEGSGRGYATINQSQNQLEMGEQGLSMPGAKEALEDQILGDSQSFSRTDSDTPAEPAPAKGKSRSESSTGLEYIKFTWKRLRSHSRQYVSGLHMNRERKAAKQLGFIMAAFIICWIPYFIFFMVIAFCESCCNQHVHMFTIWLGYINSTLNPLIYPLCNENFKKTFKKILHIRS
T3 sequence (P20309 whole entry): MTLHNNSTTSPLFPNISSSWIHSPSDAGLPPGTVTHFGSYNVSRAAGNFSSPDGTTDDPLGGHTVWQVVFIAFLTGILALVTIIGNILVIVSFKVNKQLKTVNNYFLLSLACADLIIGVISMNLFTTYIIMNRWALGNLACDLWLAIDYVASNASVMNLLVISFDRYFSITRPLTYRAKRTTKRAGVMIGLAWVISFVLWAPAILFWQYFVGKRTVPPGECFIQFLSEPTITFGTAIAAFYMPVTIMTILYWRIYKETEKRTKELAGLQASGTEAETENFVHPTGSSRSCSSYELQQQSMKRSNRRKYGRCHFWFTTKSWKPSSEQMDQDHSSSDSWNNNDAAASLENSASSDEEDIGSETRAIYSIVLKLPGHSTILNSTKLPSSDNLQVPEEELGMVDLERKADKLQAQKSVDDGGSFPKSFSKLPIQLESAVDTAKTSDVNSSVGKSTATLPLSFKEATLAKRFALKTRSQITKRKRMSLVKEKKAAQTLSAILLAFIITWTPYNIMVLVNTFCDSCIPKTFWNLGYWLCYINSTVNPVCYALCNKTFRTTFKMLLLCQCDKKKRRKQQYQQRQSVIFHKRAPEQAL

| SMILES | Average Bout-Length (male Wistar rats; 30 mg/kg PO at CT-18) | Duration (male Wistar rats; 30 mg/kg PO at CT-18) | Maximum Bout Length (male Wistar rats; 30 mg/kg PO at CT-18) | NREM Accum. (male Wistar rats; 30 mg/kg PO at CT-18) | NREM Peak (%/hr) (male Wistar rats; 30 mg/kg PO at CT-18) | Onset (male Wistar rats; 30 mg/kg PO at CT-18) | IC50 [1] | also measured |
| --- | --- | --- | --- | --- | --- | --- | --- | --- |
| O=C(O)CCN1CCC(OC(c2ccccc2)c2ccccc2)CC1 [Compound 6a, 3-[4-(diphenylmethoxy)piperidin-1-yl]propanoic acid] | 7.0 min | 5 h | 12.8 min | 26.5 min | 56.4 %/hr | 65 min | – | – |
| O=C(O)CCN1CCC(=C(c2ccccc2)c2ccccc2)CC1 [Compound 11a] | 11.2 min | 6 h | 18.7 min | 41.2 min | 67.3 %/hr | 85 min | 308 nM | – |
| CC(C)OC(=O)CCN1CCC(=C(c2ccccc2)c2ccccc2)CC1 [Compound 11d, Isopropyl 3-[4-(diphenylmethylidene)piperidin-1-yl]propanoate] | 11.0 min | 6 h | 20.1 min | 55.5 min | 58.5 %/hr | 135 min | 378 nM | – |
| CC(C)COC(=O)CCN1CCC(=C(c2ccccc2)c2ccccc2)CC1 [Compound 11e, Isobutyl 3-[4-(diphenylmethylidene)piperidin-1-yl]propanoate] | 8.3 min | 6 h | 19.1 min | 49.6 min | 59.6 %/hr | 80 min | 718 nM | – |
| O=C(CCN1CCC(=C(c2ccccc2)c2ccccc2)CC1)OC1CCCC1 [Compound 11f, Cyclopentyl 3-[4-(diphenylmethylidene)piperidin-1-yl]propanoate] | – | – | – | – | – | – | 1070 nM | cumulative effect on total sleep time (TST) during the initial 5 hours post-treatment, relative to baseline (male Wistar rats; 30 mg/kg IP versus Zolpidem 10 mg/kg): induced more TST than Zolpidem; sleep continuity, as assessed by sleep bout length (male Wistar rats; [5]): increased sleep continuity; time post-treatment over which total sleep time was increased (male Wistar rats; [5]): 3 h; total sleep time (male Wistar rats; [5]): significantly increased total sleep time; REM sleep inhibition (male Wistar rats; [6]): did not, however, produce REM sleep inhibition or rebound insomnia; rebound insomnia (male Wistar rats; [6]): did not, however, produce REM sleep inhibition or rebound insomnia |
| O=C(O)CN1CCC(C(c2ccccc2)c2ccccc2)CC1 [Compound 16a, [4-(Diphenylmethyl)piperidin-1-yl]ethanoic acid] | 5.4 min | 5 h | 11.8 min | 20.7 min | 57.9 %/hr | 180 min | – | Ki ([2]; Table 7, human recombinant, read-out: Receptor Binding Data (Ki nM) M1): > 10000 nM; Ki ([1]; Receptor Binding Data (Ki nM) H1, Table 7): 43.9 nM; Ki [3]: > 10 µM |
| Cl.O=C(O)CCCN1CCC(OC(c2ccccc2)c2ccccc2)CC1 [Compound 53a] | 4.3 min | 4 h | 9.1 min | 17.4 min | 49.2 %/hr | 30 min | – | – |
| O=C(O)CCCN1CCC(=C2c3ccccc3COc3ccccc32)CC1 [Compound 73a] | 14.5 min | – | 27.6 min | 47.3 min | 62.2 %/hr | 45 min | – | Duration (hrs) (male Wistar rats; 30 mg/kg PO at CT-18): 5-6+ hrs |
| CC(C)(CN1CCC(=C2c3ccccc3COc3ccccc32)CC1)C(=O)O [Compound 74a] | 9.9 min | 5 to 6 h | 22.3 min | 43.4 min | 64.4 %/hr | 70 to 80 min | – | – |
| CC(C)(CCN1CCC(=C2c3ccccc3COc3ccccc32)CC1)C(=O)O [Compound 75a] | 6.8 min | 4 h | 13.6 min | 33.9 min | 58.8 %/hr | 70 to 85 min | – | Average Bout-Length (male Wistar rats; 45 mg/kg PO at CT-18): 10.8 min; Duration (male Wistar rats; 45 mg/kg PO at CT-18): 5 h; Maximum Bout Length (male Wistar rats; 45 mg/kg PO at CT-18): 19.4 min; NREM Accum. (male Wistar rats; 45 mg/kg PO at CT-18): 33.9 min; NREM Peak (%/hr) (male Wistar rats; 45 mg/kg PO at CT-18): 58.2 %/hr; Onset (male Wistar rats; 45 mg/kg PO at CT-18): 70 to 85 min |
| CC(C)(CCN1CCN(C2=Nc3ccccc3Oc3ccc(Cl)cc32)CC1)C(=O)O [Compound SS1] | – | – | – | – | – | – | – | sleep continuity, as assessed by sleep bout length (male Wistar rats; [7]): increased sleep continuity; total sleep time post-treatment (male Wistar rats): significantly increased total sleep time; body temperature adverse effects (male Wistar rats): no evidence of causing disproportional locomotor inhibition or body temperature adverse effects; disproportional locomotor inhibition (male Wistar rats): no evidence of causing disproportional locomotor inhibition or body temperature adverse effects; Ki [2, 8]: > 10000 nM; Ki [1, 9]: 23.9 nM; Ki [4]: > 10 µM; Ki [3, 10]: > 10 µM |
| CC(C)(CN1CCN(C2=Nc3cc(Cl)ccc3Nc3ccccc32)CC1)C(=O)O [Compound SS2] | – | – | – | – | – | – | – | sleep continuity, as assessed by sleep bout length (male Wistar rats; [7]): increased sleep continuity; total sleep time post-treatment (male Wistar rats): significantly increased total sleep time; body temperature adverse effects (male Wistar rats): no evidence of causing disproportional locomotor inhibition or body temperature adverse effects; disproportional locomotor inhibition (male Wistar rats): no evidence of causing disproportional locomotor inhibition or body temperature adverse effects; Ki [2, 8]: > 10000 nM; Ki [1, 9]: 23.4 nM; Ki [4]: > 10 µM; Ki [3, 10]: > 10 µM |
| Cl.O=C(O)CCN1CCC(=C(c2ccccc2)c2ccccc2)CC1 [Compound U1] | – | – | – | – | – | – | – | sleep continuity, as assessed by sleep bout length (male Wistar rats; [7]): increased sleep continuity; total sleep time post-treatment (male Wistar rats): significantly increased total sleep time; net longest sleep bout post treatment (male Wistar rats; adjusted using a baseline value at least 24 hours prior, functional criteria list): greater than or equal to 3 minutes; average sleep bout (male Wistar rats; at absolute peak, functional criteria list): greater than 5 minutes; nonREM peak time value (male Wistar rats; by the third hour after administration, functional criteria list): greater than 55 % nonREM sleep per hour; cumulative total increase in nonREM sleep (male Wistar rats; doses that produce maximum sleep consolidation, functional criteria list): not less than 20 minutes; REM sleep inhibition (male Wistar rats; functional criteria list): does not appreciably inhibit REM sleep; locomotor activity inhibition relative to the normal effects of sleep (male Wistar rats; functional criteria list): does not disproportionately inhibit locomotor activity; longest sleep bout (male Wistar rats; functional criteria list): greater than 13 minutes; rebound insomnia (male Wistar rats; functional criteria list): does not produce appreciable amounts of rebound insomnia; body temperature adverse effects (male Wistar rats): no evidence of causing disproportional locomotor inhibition or body temperature adverse effects; disproportional locomotor inhibition (male Wistar rats): no evidence of causing disproportional locomotor inhibition or body temperature adverse effects; Ki [1, 9]: < 500 nM |
